Among the data in US10065941B2, “Aminotriazine derivative and pharmaceutical composition comprising the same” (Shionogi & Co., Ltd., priority 2013, dated 2018) are IC50 values, retold here.

Usually IC50 stands for the concentration that inhibits the measured activity by half.

SMILES strings stand for the structures.

Chain of human P2X3 receptor (P56373 whole entry): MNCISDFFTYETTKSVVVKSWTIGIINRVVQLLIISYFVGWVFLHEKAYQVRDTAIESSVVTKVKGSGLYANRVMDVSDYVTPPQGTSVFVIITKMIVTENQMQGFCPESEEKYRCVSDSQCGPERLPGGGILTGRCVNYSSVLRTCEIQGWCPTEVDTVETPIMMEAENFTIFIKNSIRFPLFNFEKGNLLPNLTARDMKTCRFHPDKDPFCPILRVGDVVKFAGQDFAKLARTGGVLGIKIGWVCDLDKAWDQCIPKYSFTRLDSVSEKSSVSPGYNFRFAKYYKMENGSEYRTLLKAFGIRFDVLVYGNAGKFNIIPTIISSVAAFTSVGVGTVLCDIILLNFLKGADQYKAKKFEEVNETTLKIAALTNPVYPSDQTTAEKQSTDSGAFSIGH

The test addresses human P2X3 receptor (Homo sapiens (Human), UniProt P56373). The test can be described thus: Evaluation of human P2X3 receptor inhibitory activity (Test Example 1). The test is classed as cell-based. To be noted: C6BU-1 cell transfected with human P2X3 receptor gene, FLIPR 384. Summed up:
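C6BU-1 cells stably expressing human P2X3, loaded with 4 μM Fluo-3-AM 1 h at 37 °C, preincubated 5 min with test compound, then stimulated with 150 nM ATP solution (stock, pre-dispense) and monitored by FLIPR for 4 min. IC50 derived from maximum fluorescence ratio (post-ATP peak over baseline).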
`COC(=O)C(C)Cn1c(=O)[nH]/c(=N\c2ccc(Oc3ccc(OC(F)F)cn3)cc2)n(Cc2ccc(Cl)cc2)c1=O` (centres unmarked) [Compound R-026] yielded an IC50 of 8 nM.
The compound `CC(C)(Cn1c(=O)[nH]/c(=N\c2ccc(Oc3cnc(Cl)cn3)cc2)n(Cc2ccc(Cl)cc2)c1=O)C(=O)O` [Compound R-027] yielded an IC50 of 6 nM. This IC50 and that of the compound before are within 1.5-fold of each other.
As to `COC(=O)[C@@H](C)Cn1c(=O)[nH]/c(=N\c2ccc(Oc3ccc(C(F)(F)F)nn3)cc2)n(Cc2ccc(Cl)cc2)c1=O` [Compound R-028], half-maximal inhibition (IC50) required 7 nM.
Compound `COC(=O)C(C)(C)Cn1c(=O)[nH]/c(=N\c2ccc(Oc3ccc(C(F)(F)F)nn3)cc2)n(Cc2ccc(Cl)cc2)c1=O` [Compound R-029] returned an IC50 of 7 nM. That is a single-digit nanomolar value.
Compound `C[C@@H](Cn1c(=O)[nH]/c(=N\c2ccc(Oc3ccc(C(F)(F)F)nn3)cc2)n(Cc2ccc(Cl)cc2)c1=O)C(=O)O` [Compound R-030] registered an IC50 of 8 nM.
In turn, `CC(C)(Cn1c(=O)[nH]/c(=N\c2ccc(Oc3ccc(C(F)(F)F)nn3)cc2)n(Cc2ccc(Cl)cc2)c1=O)C(=O)O` [Compound R-031] had an IC50 of 12 nM.
In turn, `COc1cc(Oc2ccc(/N=c3\[nH]c(=O)n(C[C@H](C)C(=O)O)c(=O)n3Cc3ccc(Cl)cc3)cc2)ccn1` [Compound R-032] returned an IC50 of 4 nM.
The result for `COC(=O)[C@@H](C)Cn1c(=O)[nH]/c(=N\c2ccc(Oc3cccnn3)c(F)c2)n(Cc2ccc(Cl)cc2)c1=O` [Compound R-033] reads 6 nM; that for `COC(=O)C(C)(C)Cn1c(=O)[nH]/c(=N\c2ccc(Oc3cccnn3)c(F)c2)n(Cc2ccc(Cl)cc2)c1=O` [Compound R-034], 5 nM; that for `COC(=O)[C@@H](C)Cn1c(=O)[nH]/c(=N\c2ccc(Oc3cnc(C(F)(F)F)cn3)cc2)n(Cc2ccc(Cl)cc2)c1=O` [Compound R-035], 8 nM.
For `COC(=O)C(C)(C)Cn1c(=O)[nH]/c(=N\c2ccc(Oc3cnc(C(F)(F)F)cn3)cc2)n(Cc2ccc(Cl)cc2)c1=O` [Compound R-036] the value was 11 nM; for `C[C@@H](Cn1c(=O)[nH]/c(=N\c2ccc(Oc3cccnn3)c(F)c2)n(Cc2ccc(Cl)cc2)c1=O)C(=O)O` [Compound R-037], 7 nM; for `CC(C)(Cn1c(=O)[nH]/c(=N\c2ccc(Oc3cccnn3)c(F)c2)n(Cc2ccc(Cl)cc2)c1=O)C(=O)O` [Compound R-038], 7 nM.
With `C[C@@H](Cn1c(=O)[nH]/c(=N\c2ccc(Oc3cnc(C(F)(F)F)cn3)cc2)n(Cc2ccc(Cl)cc2)c1=O)C(=O)O` [Compound R-039], half-maximal inhibition (IC50) was put at 6 nM.
The compound `COC(=O)[C@@H](C)Cn1c(=O)[nH]/c(=N\c2ccc(Oc3cc(F)nc(F)c3)cc2)n(Cc2ccc(Cl)cc2)c1=O` [Compound R-040] yielded an IC50 of 7 nM.
`COC(=O)C(C)(C)Cn1c(=O)[nH]/c(=N\c2ccc(Oc3cc(F)nc(F)c3)cc2)n(Cc2ccc(Cl)cc2)c1=O` [Compound R-041] gave an IC50 of 11 nM.
Take `COC(=O)[C@@H](C)Cn1c(=O)[nH]/c(=N\c2ccc(Oc3ccnc(C)n3)cc2)n(Cc2ccc(Cl)cc2)c1=O` [Compound R-042]: the IC50 was 5 nM.
`COC(=O)C(C)(C)Cn1c(=O)[nH]/c(=N\c2ccc(Oc3ccnc(C)n3)cc2)n(Cc2ccc(Cl)cc2)c1=O` [Compound R-043] registered an IC50 of 5 nM.
The result for `Cc1nccc(Oc2ccc(/N=c3\[nH]c(=O)n(C[C@H](C)C(=O)O)c(=O)n3Cc3ccc(Cl)cc3)cc2)n1` [Compound R-044] reads 10 nM.
For `Cc1nccc(Oc2ccc(/N=c3\[nH]c(=O)n(CC(C)(C)C(=O)O)c(=O)n3Cc3ccc(Cl)cc3)cc2)n1` [Compound R-045] the value was 14 nM.
For `COC(=O)[C@@H](C)Cn1c(=O)[nH]/c(=N\c2ccc(Oc3cc(Cl)ncn3)cc2)n(Cc2ccc(Cl)cc2)c1=O` [Compound R-046] the value was 6 nM.
`COC(=O)C(C)(C)Cn1c(=O)[nH]/c(=N\c2ccc(Oc3cc(Cl)ncn3)cc2)n(Cc2ccc(Cl)cc2)c1=O` [Compound R-047] gave an IC50 of 9 nM.
The compound `COC(=O)[C@@H](C)Cn1c(=O)[nH]/c(=N\c2ccc(Oc3cnccn3)c(F)c2)n(Cc2ccc(Cl)cc2)c1=O` [Compound R-048] yielded an IC50 of 6 nM.
In turn, `COC(=O)C(C)(C)Cn1c(=O)[nH]/c(=N\c2ccc(Oc3cnccn3)c(F)c2)n(Cc2ccc(Cl)cc2)c1=O` [Compound R-049] returned an IC50 of 8 nM. This IC50 and that of the compound before are within 1.5-fold of each other.
The result for `COc1cc(Oc2ccc(/N=c3\[nH]c(=O)n(C[C@H](C)C(=O)O)c(=O)n3Cc3ccc(Cl)cc3)cc2)ncn1` [Compound R-050] reads 14 nM.
Regarding `CCOC(=O)c1cnc(Oc2ccc(/N=c3\[nH]c(=O)n(CC)c(=O)n3Cc3ccc(Cl)cc3)cc2)cc1Cl` [Compound R-053], the IC50 came to 52 nM.
For `CCn1c(=O)[nH]/c(=N\c2ccc(Oc3cc(Cl)c(C(=O)O)cn3)cc2)n(Cc2ccc(Cl)cc2)c1=O` [Compound R-054] the value was 26 nM; for `C[C@@H](Cn1c(=O)[nH]/c(=N\c2ccc(Oc3cnccn3)c(F)c2)n(Cc2ccc(Cl)cc2)c1=O)C(=O)O` [Compound R-055], 7 nM; for `CC(C)(Cn1c(=O)[nH]/c(=N\c2ccc(Oc3cnccn3)c(F)c2)n(Cc2ccc(Cl)cc2)c1=O)C(=O)O` [Compound R-056], 10 nM.
`C[C@@H](Cn1c(=O)[nH]/c(=N\c2ccc(Oc3cc(F)nc(F)c3)cc2)n(Cc2ccc(Cl)cc2)c1=O)C(=O)O` [Compound R-057] gave an IC50 of 6 nM.
Consider `COc1cc(Oc2ccc(/N=c3\[nH]c(=O)n(C[C@H](C)C(=O)O)c(=O)n3Cc3ccc(Cl)cc3)cc2)cc(F)n1` [Compound R-058], for which the IC50 is 4 nM.
For `COC(=O)[C@@H](C)Cn1c(=O)[nH]/c(=N\c2ccc(Oc3ncccn3)cc2)n(Cc2ccc(Cl)cc2)c1=O` [Compound R-059] the value was 5 nM; for `CC(C)(Cn1c(=O)[nH]/c(=N\c2ccc(Oc3ncccn3)cc2)n(Cc2ccc(Cl)cc2)c1=O)C(=O)O` [Compound R-060], 16 nM.
Compound `COc1nccc(Oc2ccc(/N=c3\[nH]c(=O)n(C[C@H](C)C(=O)O)c(=O)n3Cc3ccc(Cl)cc3)cc2)n1` [Compound R-061] registered an IC50 of 7 nM.
For `CCOC(=O)[C@H]1C[C@@H](Oc2ccc(/N=c3\[nH]c(=O)n(CC)c(=O)n3Cc3ccc(Cl)cc3)cc2)C1` [Compound R-062] the value was 318 nM; for `CCn1c(=O)[nH]/c(=N\c2ccc(O[C@H]3C[C@@H](C(=O)O)C3)cc2)n(Cc2ccc(Cl)cc2)c1=O` [Compound R-063], 456 nM.
Regarding `CCn1c(=O)[nH]/c(=N\c2ccc(Oc3ccc(C(=O)OC)c(Cl)n3)cc2)n(Cc2ccc(Cl)cc2)c1=O` [Compound R-064], the IC50 came out at 12 nM.
`CCn1c(=O)[nH]/c(=N\c2ccc(Oc3ccc(C(=O)O)c(Cl)n3)cc2)n(Cc2ccc(Cl)cc2)c1=O` [Compound R-066] came in with an IC50 of 58 nM.
The result for `CCc1[nH]c2ccc(/N=c3\[nH]c(=O)n(C[C@H](C)C(=O)OC)c(=O)n3Cc3ccc(Cl)cc3)cc2c1C` [Compound R-068] reads 40 nM; that for `CCc1[nH]c2ccc(/N=c3\[nH]c(=O)n(CC(C)(C)C(=O)OC)c(=O)n3Cc3ccc(Cl)cc3)cc2c1C` [Compound R-069], 51 nM; that for `CC(C)(Cn1c(=O)[nH]/c(=N\c2ccc(Oc3cc(F)nc(F)c3)cc2)n(Cc2ccc(Cl)cc2)c1=O)C(=O)O` [Compound R-070], 7 nM.
In the case of `COc1cc(Oc2ccc(/N=c3\[nH]c(=O)n(CC(C)(C)C(=O)O)c(=O)n3Cc3ccc(Cl)cc3)cc2)cc(F)n1` [Compound R-071], half-maximal inhibition (IC50) required 6 nM.
For the compound `COC(=O)[C@@H](C)Cn1c(=O)[nH]/c(=N\c2ccc(OC3CCC3)c(F)c2)n(Cc2ccc(Cl)cc2)c1=O` [Compound R-072], 16 nM corresponded to half-maximal inhibition (IC50).
For `COC(=O)C(C)(C)Cn1c(=O)[nH]/c(=N\c2ccc(OC3CCC3)c(F)c2)n(Cc2ccc(Cl)cc2)c1=O` [Compound R-073], the IC50 is 31 nM.
Turning to `CCc1[nH]c2ccc(/N=c3\[nH]c(=O)n(C[C@H](C)C(=O)O)c(=O)n3Cc3ccc(Cl)cc3)cc2c1C` [Compound R-074], the IC50 stood at 13 nM.
In turn, `CCc1[nH]c2ccc(/N=c3\[nH]c(=O)n(CC(C)(C)C(=O)O)c(=O)n3Cc3ccc(Cl)cc3)cc2c1C` [Compound R-075] yielded an IC50 of 13 nM.
As for `C[C@@H](Cn1c(=O)[nH]/c(=N\c2ccc(OC3CCC3)c(F)c2)n(Cc2ccc(Cl)cc2)c1=O)C(=O)O` [Compound R-076], the IC50 came out at 13 nM.
Compound `CC(C)(Cn1c(=O)[nH]/c(=N\c2ccc(OC3CCC3)c(F)c2)n(Cc2ccc(Cl)cc2)c1=O)C(=O)O` [Compound R-077] came in with a half-maximal inhibitory concentration (IC50) of 24 nM.
In turn, `C[C@@H](Cn1c(=O)[nH]/c(=N\c2ccc(Oc3ncccn3)cc2)n(Cc2ccc(Cl)cc2)c1=O)C(=O)O` [Compound R-078] displayed an IC50 of 10 nM. This IC50 is about 2.4-fold lower than that of the compound before.
In the case of `COC(=O)[C@@H](C)Cn1c(=O)[nH]/c(=N\c2ccc(Oc3cncc(Cl)c3)cc2)n(Cc2ccc(Cl)cc2)c1=O` [Compound R-079], the IC50 was 11 nM.
For `COC(=O)C(C)(C)Cn1c(=O)[nH]/c(=N\c2ccc(Oc3cncc(Cl)c3)cc2)n(Cc2ccc(Cl)cc2)c1=O` [Compound R-080], the IC50 came out at 13 nM.
In turn, `C[C@@H](Cn1c(=O)[nH]/c(=N\c2ccc(Oc3cncc(Cl)c3)cc2)n(Cc2ccc(Cl)cc2)c1=O)C(=O)O` [Compound R-081] had an IC50 of 5 nM.
Compound `CC(C)(Cn1c(=O)[nH]/c(=N\c2ccc(Oc3cncc(Cl)c3)cc2)n(Cc2ccc(Cl)cc2)c1=O)C(=O)O` [Compound R-082] yielded an IC50 of 7 nM.
For `O=c1[nH]/c(=N\c2ccc(Oc3ncccc3F)cc2)n(Cc2ccc(Cl)cc2)c(=O)n1CC1(CO)COC1` [Compound R-083], the midpoint of inhibition, the IC50, lay at 7 nM.
`O=c1[nH]/c(=N\c2ccc(Oc3ccc(F)cn3)cc2)n(Cc2ccc(Cl)cc2)c(=O)n1CC1(CO)COC1` [Compound R-084] gave an IC50 of 6 nM.
`COc1ccc(Oc2ccc(/N=c3\[nH]c(=O)n(C[C@H](C)C(=O)O)c(=O)n3Cc3ccc(Cl)cc3)cc2)nn1` [Compound R-085] had an IC50 of 6 nM.
